Results as given in ChEMBL document CHEMBL1201862, “PubChem BioAssay data set” (2004).
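Dose response: 5 concentrations. Exposure: 48 h. Format: 96-well plates. Endpoint: linear interpolation; highest concentration if not reached. At the GI50, growth is halved.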 Calls of active or inactive are those of the source. Cut-off read from the data, not from the text of the source: active = GI50 up to about 1.1 µM and inactive = higher.

Columns and labels:
Test in all cases: DTP human tumour cell line panel, 48 h
SK-OV-3 = tested on: SK-OV-3
NCI-H23 = tested on: NCI-H23
ACHN = tested on: ACHN
HT-29 = tested on: HT-29
SW-620 = tested on: SW-620
OVCAR-4 = tested on: OVCAR-4
SK-MEL-5 = tested on: SK-MEL-5
OVCAR-8 = tested on: OVCAR-8
HCC 2998 = tested on: HCC 2998
UO-31 = tested on: UO-31
LOX IMVI = tested on: LOX IMVI
A549 = tested on: A549
MDA-MB-231 = tested on: MDA-MB-231
U-251 = tested on: U-251
Hs-578T = tested on: Hs-578T
OVCAR-5 = tested on: OVCAR-5
HCT-15 = tested on: HCT-15
MDA-N = tested on: MDA-N
M14 = tested on: M14
KM12 = tested on: KM12
NCI-H460 = tested on: NCI-H460
EKVX = tested on: EKVX
SF-295 = tested on: SF-295
BT-549 = tested on: BT-549
HOP-62 = tested on: HOP-62
TK-10 = tested on: TK-10
SK-MEL-2 = tested on: SK-MEL-2
SK-MEL-28 = tested on: SK-MEL-28
SNB-19 = tested on: SNB-19
T47D = tested on: T47D
NCI-H226 = tested on: NCI-H226
OVCAR-3 = tested on: OVCAR-3
PC-3 = tested on: PC-3
UACC-62 = tested on: UACC-62
SN12C = tested on: SN12C
NCI/ADR-RES = tested on: NCI/ADR-RES
SNB-75 = tested on: SNB-75
HOP-92 = tested on: HOP-92
SR = tested on: SR
UACC-257 = tested on: UACC-257
DU-145 = tested on: DU-145
MDA-MB-435 = tested on: MDA-MB-435
IGROV-1 = tested on: IGROV-1
786-0 = tested on: 786-0
K562 = tested on: K562
CAKI-1 = tested on: CAKI-1
RPMI-8226 = tested on: RPMI-8226
A498 = tested on: A498
MCF7 = tested on: MCF7
COLO 205 = tested on: COLO 205
HCT-116 = tested on: HCT-116
SF-268 = tested on: SF-268
CCRF-CEM = tested on: CCRF-CEM
MOLT-4 = tested on: MOLT-4
SF-539 = tested on: SF-539
NCI-H522 = tested on: NCI-H522

COc1ccc(-n2cnc3c(NC(Cc4ccccc4)C(=O)O)ncnc32)cc1 (stereo unspecified)
GI50 (SK-OV-3): > 100 µM (inactive) | GI50 (NCI-H23): > 100 µM (inactive) | GI50 (ACHN): > 100 µM (inactive) | GI50 (HT-29): > 100 µM (inactive) | GI50 (SW-620): > 100 µM (inactive) | GI50 (OVCAR-4): > 100 µM (inactive) | GI50 (SK-MEL-5): > 100 µM (inactive) | GI50 (OVCAR-8): > 100 µM (inactive) | GI50 (HCC 2998): > 100 µM (inactive) | GI50 (UO-31): > 100 µM (inactive) | GI50 (LOX IMVI): > 100 µM (inactive) | GI50 (A549): > 100 µM (inactive) | GI50 (MDA-MB-231): > 100 µM (inactive) | GI50 (U-251): > 100 µM (inactive) | GI50 (Hs-578T): > 100 µM (inactive) | GI50 (OVCAR-5): > 100 µM (inactive) | GI50 (HCT-15): > 100 µM | GI50 (MDA-N): > 100 µM (inactive) | GI50 (M14): > 100 µM (inactive) | GI50 (KM12): > 100 µM (inactive) | GI50 (NCI-H460): > 100 µM (inactive) | GI50 (EKVX): > 100 µM (inactive) | GI50 (SF-295): > 100 µM (inactive) | GI50 (BT-549): > 100 µM (inactive) | GI50 (HOP-62): > 100 µM (inactive) | GI50 (TK-10): > 100 µM (inactive) | GI50 (SK-MEL-2): > 100 µM (inactive) | GI50 (SK-MEL-28): > 100 µM (inactive) | GI50 (SNB-19): > 10 µM (inactive) | GI50 (T47D): 92.7 µM (inactive) | GI50 (NCI-H226): > 100 µM (inactive) | GI50 (OVCAR-3): > 100 µM (inactive) | GI50 (PC-3): > 100 µM (inactive) | GI50 (UACC-62): > 100 µM (inactive) | GI50 (SN12C): > 100 µM (inactive) | GI50 (NCI/ADR-RES): > 100 µM (inactive) | GI50 (SNB-75): > 100 µM (inactive) | GI50 (HOP-92): > 100 µM (inactive) | GI50 (SR): > 100 µM (inactive) | GI50 (UACC-257): > 100 µM (inactive) | GI50 (DU-145): > 100 µM (inactive) | GI50 (MDA-MB-435): > 100 µM (inactive) | GI50 (IGROV-1): > 100 µM (inactive) | GI50 (786-0): > 100 µM (inactive) | GI50 (K562): > 100 µM (inactive) | GI50 (CAKI-1): > 100 µM (inactive) | GI50 (RPMI-8226): > 100 µM (inactive) | GI50 (A498): > 100 µM (inactive) | GI50 (MCF7): > 100 µM (inactive) | GI50 (COLO 205): > 100 µM (inactive) | GI50 (HCT-116): > 100 µM (inactive) | GI50 (SF-268): > 100 µM (inactive) | GI50 (CCRF-CEM): > 100 µM (inactive)

COC(=O)c1cc(/C=C\c2cc(OC)ccc2OC)ccc1OC
GI50 (SK-OV-3): 37.3 µM (inactive) | GI50 (NCI-H23): 43.3 µM (inactive) | GI50 (ACHN): 32.1 µM (inactive) | GI50 (HT-29): 25.6 µM (inactive) | GI50 (SW-620): 38.9 µM (inactive) | GI50 (OVCAR-4): 33.6 µM (inactive) | GI50 (SK-MEL-5): 17.7 µM (inactive) | GI50 (OVCAR-8): 36.4 µM (inactive) | GI50 (HCC 2998): 22.4 µM (inactive) | GI50 (UO-31): 30.3 µM (inactive) | GI50 (LOX IMVI): 24 µM (inactive) | GI50 (A549): 32.1 µM (inactive) | GI50 (MDA-MB-231): 34.4 µM (inactive) | GI50 (U-251): 32.3 µM (inactive) | GI50 (Hs-578T): 40.4 µM (inactive) | GI50 (OVCAR-5): 39.4 µM (inactive) | GI50 (HCT-15): 33.2 µM | GI50 (MDA-N): 17.7 µM (inactive) | GI50 (M14): 26.1 µM (inactive) | GI50 (MOLT-4): 6.75 µM (inactive) | GI50 (KM12): 29.2 µM (inactive) | GI50 (NCI-H460): 51.2 µM (inactive) | GI50 (EKVX): 26.1 µM (inactive) | GI50 (SF-295): 30.8 µM (inactive) | GI50 (BT-549): 31.2 µM (inactive) | GI50 (SF-539): 38.5 µM (inactive) | GI50 (HOP-62): 25.6 µM (inactive) | GI50 (TK-10): 50.8 µM (inactive) | GI50 (SK-MEL-2): 24.9 µM (inactive) | GI50 (SK-MEL-28): 18.4 µM (inactive) | GI50 (NCI-H522): 19.9 µM (inactive) | GI50 (SNB-19): 34 µM (inactive) | GI50 (T47D): 18.7 µM (inactive) | GI50 (OVCAR-3): 24.4 µM (inactive) | GI50 (PC-3): 26.1 µM (inactive) | GI50 (UACC-62): 22.6 µM (inactive) | GI50 (SN12C): 38.2 µM (inactive) | GI50 (NCI/ADR-RES): 37.3 µM (inactive) | GI50 (SR): 10.4 µM (inactive) | GI50 (UACC-257): 30.5 µM (inactive) | GI50 (DU-145): 26.9 µM (inactive) | GI50 (MDA-MB-435): 8.81 µM (inactive) | GI50 (IGROV-1): 13.7 µM (inactive) | GI50 (786-0): 35.1 µM (inactive) | GI50 (K562): 6.5 µM (inactive) | GI50 (CAKI-1): 33.3 µM (inactive) | GI50 (RPMI-8226): 18.4 µM (inactive) | GI50 (A498): 28.7 µM (inactive) | GI50 (MCF7): 25.6 µM (inactive) | GI50 (COLO 205): 21.2 µM (inactive) | GI50 (HCT-116): 32.4 µM (inactive) | GI50 (SF-268): 32.7 µM (inactive) | GI50 (CCRF-CEM): 55.1 µM (inactive)
